Measured values published in patent US20090306052A1, “INDENYL DERIVATIVES AND USE THEREOF FOR THE TREATMENT OF NEUROLOGICAL DISORDERS” (Glaxo Group Limited, priority 2004, published 2009).

molecular target: T1, histamine H3 receptor (Homo sapiens, UniProt Q9Y5N1); test: Histamine H3 functional antagonist assay ([35S]-GTPγS SPA, membranes from cultured H3 cells); format: biochemical; settings: hydrochloride salts tested; averages of a number of experiments; membrane prepared from cultured H3 cells; read-out: functional pKi (fpKi), histamine H3 functional antagonist assay (converted)
T1 construct: expressed in transfected cells; host or cells: CHO K1 cells carrying the pSwitch regulatory plasmid, transfected with pGeneH3 and induced with mifepristone; clone 3H3; membrane preparation
From the text: A membrane preparation containing histamine H3 receptors may be prepared in accordance with the following procedures:
DNA encoding the human histamine H3 gene (Huvar, A. et al. (1999) Mol. Pharmacol. 55(6), 1101-1107) was cloned into a holding vector, pcDNA3.1 TOPO (InVitrogen) and its cDNA was isolated from this vector by restriction digestion of plasmid DNA with the enzymes BamH1 and Not-1 and ligated into the inducible expression vector pGene (InVitrogen) digested with the same enzymes. The GeneSwitch™ system (a system where in transgene expression is switched off in the absence of an inducer and switched on in the presence of an inducer) was performed as described in U.S. Pat. Nos. 5,364,791; 5,874,534; and 5,935,934. Ligated DNA was transformed into competent DH5α E. coli host bacterial cells and plated onto Luria Broth (LB) agar containing Zeocin™ (an antibiotic which allows the selection of cells expressing the sh ble gene which is present on pGene and pSwitch) at 50 μg ml^−1. Colonies containing the re-ligated plasmid were identified by restriction analysis. DNA for transfection into mammalian cells was prepared from 250 ml cultures of the host bacterium containing the pGeneH3 plasmid and isolated using a DNA preparation kit (Qiagen Midi-Prep) as per manufacturers guidelines (Qiagen).
CHO K1 cells previously transfected with the pSwitch regulatory plasmid (InVitrogen) were seeded at 2×10e6 cells per T75 flask in Complete Medium, containing Hams F12 (GIBCOBRL, Life Technologies) medium supplemented with 10% v/v dialysed foetal bovine serum, L-glutamine, and hygromycin (100 μg ml^−1), 24 hours prior to use. Plasmid DNA was transfected into the cells using Lipofectamine plus according to the manufacturers guidelines (InVitrogen). 48 hours post transfection cells were placed into complete medium supplemented with 500 μg ml^−1 Zeocin™.
10-14 days post selection 10 nM Mifepristone (InVitrogen), was added to the culture medium to induce the expression of the receptor. 18 hours post induction cells were detached from the flask using ethylenediamine tetra-acetic acid (EDTA; 1:5000; InVitrogen), following several washes with phosphate buffered saline pH 7.4 and resuspended in Sorting Medium containing Minimum Essential Medium (MEM), without phenol red, and supplemented with Earles salts and 3% Foetal Clone II (Hyclone). Approximately 1×10e7 cells were examined for receptor expression by staining with a rabbit polyclonal antibody, 4a, raised against the N-terminal domain of the histamine H3 receptor, incubated on ice for 60 minutes, followed by two washes in sorting medium. Receptor bound antibody was detected by incubation of the cells for 60 minutes on ice with a goat anti rabbit antibody, conjugated with Alexa 488 fluorescence marker (Molecular Probes). Following two further washes with Sorting Medium, cells were filtered through a 50 μm Filcon™ (BD Biosciences) and then analysed on a FACS Vantage SE Flow Cytometer fitted with an Automatic Cell Deposition Unit. Control cells were non-induced cells treated in a similar manner. Positively stained cells were sorted as single cells into 96-well plates, containing Complete Medium containing 500 μg ml^−1 Zeocin™ and allowed to expand before reanalysis for receptor expression via antibody and ligand binding studies. One clone, 3H3, was selected for membrane preparation.
All steps of the protocol are carried out at 4° C. and with pre-cooled reagents. […]

T1 sequence (Q9Y5N1 whole entry): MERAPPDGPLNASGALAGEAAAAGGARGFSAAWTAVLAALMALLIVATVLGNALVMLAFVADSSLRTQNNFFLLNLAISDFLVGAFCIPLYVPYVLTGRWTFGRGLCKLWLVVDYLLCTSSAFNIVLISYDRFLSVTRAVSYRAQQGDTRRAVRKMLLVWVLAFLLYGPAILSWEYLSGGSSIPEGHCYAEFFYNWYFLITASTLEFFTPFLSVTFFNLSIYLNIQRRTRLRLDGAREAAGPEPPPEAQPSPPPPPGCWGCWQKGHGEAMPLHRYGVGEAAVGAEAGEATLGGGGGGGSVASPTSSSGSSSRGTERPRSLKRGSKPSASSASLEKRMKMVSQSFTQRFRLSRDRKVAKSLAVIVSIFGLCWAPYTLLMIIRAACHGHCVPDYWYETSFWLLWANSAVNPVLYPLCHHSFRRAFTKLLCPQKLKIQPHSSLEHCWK

Ki, < 1 nM:
O=C1CCCN1c1ccc(Oc2ccc3c(c2)CC(N2CCCC2)C3)nc1 (racemic) [Example 3, 1-(6-{[2-(1-Pyrrolidinyl)-2,3-dihydro-1H-inden-5-yl]oxy}-3-pyridinyl)-2-pyrrolidinone]
CNC(=O)c1ccc(Oc2ccc3c(c2)CC(N2CCCC2)C3)nc1 (single isomer, unassigned; (-)) [Example 22, (−)-Enantiomer N-methyl-6-{[2-(1-pyrrolidinyl)-2,3-dihydro-1H-inden-5-yl]oxy}-3-pyridinecarboxamide]
O=C1CCCN1c1ccc(Oc2ccc3c(c2)CC(N2CCCC2)C3)nc1 (single isomer, unassigned; enantiomer 1) [Example 4, (−)-Enantiomer 1-(6-{[2-(1-Pyrrolidinyl)-2,3-dihydro-1H-inden-5-yl]oxy}-3-pyridinyl)-2-pyrrolidinone]
O=C(c1ccc(Oc2ccc3c(c2)CC(N2CCCC2)C3)nc1)N1CCCC1 (centres unmarked) [Example 12, 5-(1-Pyrrolidinylcarbonyl)-2-{[2-(1-pyrrolidinyl)-2,3-dihydro-1H-inden-5-yl]oxy}pyridine]
C[C@H]1CCCN1C1Cc2ccc(Oc3ccc(N4CCCC4=O)cn3)cc2C1 (stereo partly drawn) [Example 20, 1-[6-({2-[(2S)-2-Methyl-1-pyrrolidinyl]-2,3-dihydro-1H-inden-5-yl}oxy)-3-pyridinyl]-2-pyrrolidinone]
